Patent US6436955B1, “Crystal modification A of 8-cyano-1-cyclopropyl-7-(is,6s-2,8-diazabicyclo[4.3.0]nonan-8-yl)-6-fluoro-1,4-dihydro-4-oxo-3-quinolinecarboxylic acid” (Bayer Aktiengesellschaft, priority 1998, dated 2002)

Experiment: Water absorption from the atmosphere at 95% relative atmospheric humidity
Type: physicochemical
Conditions: relative atmospheric humidity of 95% (saturated solution of Na2HPO4×12 H2O with sediment in water); within one day
Description: At a relative atmospheric humidity of 95% (established using a saturated solution of Na2HPO4×12 H2O with sediment in water), the solid obtained according to this procedure absorbs approximately 17% by weight of water within one day.
At a relative atmospheric humidity of 95% (established using a saturated solution of Na2HPO4×12 H2O with sediment in water), the solid obtained according to this procedure absorbs approximately 3% by weight of water within one day.

Row | Compound | water absorbed by the solid
1 | N#Cc1c(N2C[C@@H]3CCCN[C@@H]3C2)c(F)cc2c(=O)c(C(=O)O)cn(C3CC3)c12 [Comparative Example, 8-cyano-1-cyclopropyl-7-(1S,6S-2,8-diazabicyclo[4.3.0]nonan-8-yl)-6-fluoro-1,4-dihydro-4-oxo-3-quinolinecarboxylic acid] | approximately 17 % by weight
2 | N#Cc1c(N2C[C@@H]3CCCN[C@@H]3C2)c(F)cc2c(=O)c(C(=O)O)cn(C3CC3)c12 [Example 1, 8-cyano-1-cyclopropyl-7-(1S,6S-2,8-diazabicyclo[4.3.0]nonan-8-yl)-6-fluoro-1,4-dihydro-4-oxo-3-quinolinecarboxylic acid] | approximately 3 % by weight
